Consider seven compounds from article PMC10380841, “Synthesis, Characterization and Cytotoxic Evaluation of New Pyrrolo[1,2-b]pyridazines Obtained via Mesoionic Oxazolo-Pyridazinones” (International Journal of Molecular Sciences, 2023).

Like-named read-outs stand apart in the source and are kept apart here.

For data set [1], the system named is LoVo colon adenocarcinoma cells. Briefly: MTS cytotoxicity assay, LoVo. The settings on record: Homo sapiens, read-out: cell viability. The class given is cell-based. On the technique in general: Tetrazolium dyes change colour on reduction, which living cells bring about.
Data set [2] deals with MCF-7 breast adenocarcinoma cells. The data set can be described thus: MTS cytotoxicity assay, MCF-7. Particulars: Homo sapiens, MCF7; for viability at 200 µM: MCF-7, 200 μM; for viability at 200 µM / viability at 400 µM: 48 h, read-out: cell viability; for viability at 400 µM: MCF-7, 400 μM; for IC50: MCF-7, 48 h, read-out: IC50 MCF-7 48 h. The class given is cell-based, human. The method, then:
(§1) Therefore, the precursor acids 2a–c and corresponding pyrrolo[1,2-b]pyridazines 5a–c,f were tested for their potential cytotoxic activity. During the assays, increasing concentrations of the compounds, ranging from […], were added for 24 h or 48 h to cancer LoVo, SK-OV-3, MCF-7, and the reference HUVEC cells, previously cultured for 24 h in 96-well flat bottom plates. […] Then, MTS reagent was added, and cells were incubated for 4 h at 37 °C in a 5% CO2 humidified atmosphere. The absorbance values were spectrophotometrically read to a Dynex ELISA reader at λ = […].
(§2) For the evaluation of the in vitro potential anti-proliferative effects of treatments with the new compounds under study against solid tumor-derived cells, several compound-mediated cytotoxicity assays were performed on three adherent tumor standardized cell lines, and normal human endothelial cells, used as control: the MCF-7 human breast adenocarcinoma and SK-OV-3 human ovary adenocarcinoma cell lines were provided from European Collection of Authenticated Cell Cultures (ECACC), while LoVo, human colorectal adenocarcinoma cell line, and HUVEC human umbilical vein endothelial cells were purchased from American Type Culture Collection (ATCC).
(§3) Adherent cells were cultivated in DMEM/F12 medium added with 2 mM L-glutamine and 10% fetal bovine serum, 100 units/mL penicillin, 100 µg/mL streptomycin (Sigma Aldrich, St. Louis, MO, USA) and incubated at 37 °C in 5% CO2 humidified atmosphere. The stock solutions for cell treatments were prepared by dissolving the synthesized compounds in a minimum amount of DMSO. Working dilutions were prepared from the stock solutions in culture medium before each treatment assay. After 24 h, when cell cultures achieved around 70% confluence, treatments were applied for various periods of time with different concentrations of synthesized compounds or oncolytic drugs, used as positive controls.
(§4) Therefore, cell cultures treated with the new compounds or oncolytic drugs for 24 h or 48 h were further subjected to a colorimetric cell viability method, the MTS assay. The absorbance of probes was read, data were calculated, and percentages of cell viability were assessed.
The evaluation of the compound-induced cytotoxicity was made using the CellTiter 96 Aqueous One Solution Cell Proliferation Assay (Promega, Madison, WI, USA), a reagent that contains both MTS (3-(4,5-dimethylthiazol-2-yl)-5-(3-carboxymethoxyphenyl)-2-(4-sulfophenyl)-2H-tetrazolium, inner salt) and PES ([…], a cationic dye with high chemical stability that binds to MTS and forms a stable solution). The assay is based on the ability of the metabolically active cells to reduce the yellow tetrazolium salt MTS to a compound that is soluble in culture medium, the colored formazan, followed by the spectrophotometric evaluation of its concentration.
(§5) Briefly, 1.5 × 10^4 cancer or normal cells were cultured in 100 µL/well for 24 h. After the culture supernatants were discarded, cells were treated for additional 24 h or 48 h with increasing concentrations of new compounds or oncolytic drugs. Following the specific treatments, in each well a volume of 20 µL of coloring mixture reagent of MTS and PES was added, and then the plates were incubated with mild agitation every 20 min for 4 h at 37 °C. The color developed during incubation was spectrophotometrically quantified at λ = 492 nm using a Dynex ELISA reader (DYNEX Technologies—MRS, Chantilly, VA, USA).
(§6) Data were expressed as percentages of cell viability of the treated cells, and were calculated and compared to the untreated cells (considered 100% viable), using the formula:Cell viability (%) = (T − B)/(U − B) × 100 where T = absorbance of treated cells, U = absorbance of untreated cells, and B = absorbance of culture medium (blank), for λ = 492 nm.
The cell viability data were expressed as the mean values ± standard deviations (SD) of three different experiments (n = 3). […]

Data set [3] concerns SK-OV-3 ovary adenocarcinoma cells. The data set can be described thus: MTS cytotoxicity assay, SK-OV-3. Particulars: Homo sapiens, SK-OV-3, 400 μM, read-out: cell viability. It is filed as cell-based.
The nature of data set [4]: Daphnia magna toxicity assay. It is filed as in vivo. Particulars: Daphnia magna, in vivo; 48 h. The method, then: (§7) Young organisms of Daphnia magna were selected according to their size from a parthenogenetic culture maintained in an artificial medium for 24 h before the bioassay. The determination was conducted in tissue culture plates with 12 wells (Greiner Bio-One, Monroe, NC, USA), with 10 organisms in each well, and a final volume of 3 mL per sample [65, 66]. As a negative control, DMSO was used at a concentration of 1%. All compounds were tested at six different concentration levels, ranging from 12.5 to 500 μg/mL. All assessments were performed in duplicate.

The subject of data set [5] is Daphnia magna Straus. Briefly: Daphnia magna toxicity assay. It is filed as in vivo. Particulars: 48 h. On the procedure: as §7
Data set [6] has as its system LoVo colon adenocarcinoma cells. The data set can be described thus: MTS cytotoxicity assay, LoVo. The settings on record: Homo sapiens. It is filed as cell-based, human. The method, then: as §1, §2, §3, §4
(§8) The evaluation of the compound-induced cytotoxicity was made using the CellTiter 96 Aqueous One Solution Cell Proliferation Assay (Promega, Madison, WI, USA), a reagent that contains both MTS (3-(4,5-dimethylthiazol-2-yl)-5-(3-carboxymethoxyphenyl)-2-(4-sulfophenyl)-2H-tetrazolium, inner salt) and PES ([…], a cationic dye with high chemical stability that binds to MTS and forms a stable solution).
as §5, §6
(§9) The cell viability data were expressed as the mean values ± standard deviations (SD) of three different experiments (n = 3). […] Moreover, a parallel experiment was performed in the absence of cells, with all the concentrations of the compounds being tested for their potential interference with MTS reagents; then, their absorbance values were extracted during calculations.

For data set [7], the system named is SK-OV-3 ovary adenocarcinoma cells. The data set can be described thus: MTS cytotoxicity assay, SK-OV-3. The class given is cell-based, human. Particulars: Homo sapiens. The method, then:
as §1, §2, §3, §4, §8, §5, §6, §9

Data set [8] relates to Triticum aestivum L. The data set can be described thus: Triticum test, phytotoxicity (main root length). It is filed as in vivo. The settings on record: Triticum aestivum, 72 h; Triticum root length, 10–1000 µM, measured over three days. The method, then: Phytobiological testing (Triticum test) was performed by the Constantinescu method which consists in determining the maximum active dilution of a compound. Depending on the duration of action, it can influence root elongation and the […] film. […] Embryonic wheat roots were obtained by germinating homogeneous wheat caryopses in Linhart pots. Then the caryopses with a main root length of 1 cm were placed in the test solutions. For the determination of the action of each compound, five dilutions in the concentration range of 10–1000 µM were obtained and 11 caryopses were placed in them. Petri dishes containing 15 mL of diluted solution were kept under constant conditions of temperature (25 °C), and humidity (60%), in the absence of light. […] The results were expressed in comparison with a 1% DMSO control.
Statistical analyses were performed using the computing and programming environment R, R, v. 4.2.1 [68], under Rstudio, v. 2022.07.2+576 “Spotted Wakerobin” for Windows (RStudio, PBC, Boston, 2022), both for the Triticum and Artemia tests. It used a parametric mixed-effects model (R package “lme4”) and a robust mixed-effects model (R package “robustlmm”), in which root length measurements (Triticum) from all three days were used as the dependent variable, whereas compound, concentration and time were treated as fixed effects, with time (day of measurement) also treated as a random effect. Assessing statistical significance for mixed-effects statistical models is controversial and complex, but as a pragmatic way of working, we have estimated p-values using the Kenward–Rogers approximation (R package “sjPlot”). A variety of R base functions and R packages were used to diagnose the regression models (“car” [72], “MASS” [73], and “gvlma” [74]). Mixed boxplot–dotplot plots were generated using the “ggplot2” package.
The “drc” R package was used to estimate IC50 values for the Triticum bioassay by nonlinear modeling. For Triticum, the relationship between root length and concentration was modeled using Weibull functions with 2, 3, or 4 parameters, depending on the data distribution, the models being selected from a range of several models with different functions and parameters, based on the Akaike’s information criterion (AIC).

The nature of data set [9]: MTS cytotoxicity assay, HUVEC normal cells. It is filed as cell-based, human. The settings on record: human, HUVEC human umbilical vein endothelial cells (normal cells), 400 μM, read-out: cell viability. On the procedure: as §1, §2, §3, §4, §8, §5, §6, §9
The test system of data set [10] is Triticum vulgare root tips. Briefly: Microscopic examination of Triticum root tips (mitotic film changes). Particulars: 1000 μM, 24 h contact. It is filed as in vivo. On the procedure: Microscopic examination of Triticum vulgare root tips followed the mitotic film changes induced by the tested compounds. Observations were made after 24 h of contact of the caryopses with the test solutions. The study was made in comparison with DMSO control maintained under the same conditions as the samples. To obtain microscopic preparations, sectioning of wheat embryonic roots was carried out at about 5 mm from the tip and stained with dilute […] according to the La Cour procedure. The examination was conducted on a Euromex oxion series 110–240 V/50–60 Hz microscope with digital camera CEMEX 5 DC 5000 C and 40× and 100× lenses with cedar oil immersion (Sigma-Aldrich St. Louis, MO, USA).

Where [11] appears, read: SK-OV-3, 24 h, read-out: IC50 Sk-OV-3 24 h.
The mark [12] stands for this setting: SK-OV-3, 48 h, read-out: IC50 Sk-OV-3 48 h.

As usually defined, the melting point is the temperature, or range, at which the solid turns liquid. The compound `CCOC(=O)C(CC)n1nc(-c2ccccc2)ccc1=O` (centres unmarked) [Compound 1a, Ethyl 2-(6-oxo-3-phenylpyridazin-1-yl)butanoate] registered a melting point of 56 to 58 °C.
`CCOC(=O)C(CC)n1nc(-c2ccc(F)cc2)ccc1=O` (centres unmarked) [Compound 1b, Ethyl 2-[6-oxo-3-(4-fluorophenyl)pyridazin-1-yl]butanoate] showed a melting point of 59 to 61 °C.
As usually defined, the viability is a read-out of living cells in per cent, often relative to untreated cells. By IC50 is commonly meant the concentration that gives 50% inhibition. As a reminder, the LC50 is the concentration lethal to half of the exposed cells or organisms. For `CCC(C(=O)O)n1nc(-c2ccccc2)ccc1=O` (centres unmarked) [Compound 2a, 2-(6-Oxo-3-phenylpyridazin-1-yl)butanoic acid], the viability at 200 µM in data set [1] (200 μM, 48 h) stood at 82.9%; in data set [2], 97%. Besides, the viability at 400 µM in data set [1] (24 h) was 69.1%; in [1] (48 h) it was 60.8%; in data set [2], 94%; in data set [3] (24 h) it was 89.3%; in [3] (48 h), 85.1%. Also, the IC50 in [2] was at least 400 µM; in data set [6] (24 h, read-out: IC50 LoVo 24 h) it was at least 400 µM; in data set [6] (48 h, read-out: IC50 LoVo 48 h) it was at least 400 µM; in [7] (setting [11]), at least 400 µM; in [7] (setting [12]) it was at least 400 µM; in data set [8] it was 213 µM. Moreover, the LC50 at 48 h in data set [4] came out at 521 µM. In data set [5], the “toxicity on Daphnia magna” value is reported as “moderate toxicity”.
As to `CCOC(=O)c1cc(CC)n2nc(-c3ccccc3)ccc12` [Compound 5d, Ethyl 7-ethyl-2-phenylpyrrolo[1,2-b]pyridazine-5-carboxylate], the melting point fell in the range of 99 to 101 °C.
In the case of `CCOC(=O)c1cc(CC)n2nc(-c3ccc(Cl)cc3)ccc12` [Compound 5f, Ethyl 2-(4-chlorophenyl)-7-ethylpyrrolo[1,2-b]pyridazine-5-carboxylate], the viability at 400 µM worked out at 78.2% in data set [1] (24 h), 41.8% in [1] (48 h), 94% in data set [2] and 83% in data set [3] (48 h). In [2], the viability at 200 µM was found to be 97%. Further, the IC50 in [2] is at least 400 µM; in [6] (24 h, read-out: IC50 LoVo 24 h), at least 400 µM; in data set [6] (48 h, read-out: IC50 LoVo 48 h) it was 353 ± 4.1 µM; in data set [7] (setting [11]), at least 400 µM; in data set [7] (setting [12]), at least 400 µM. Also, in [9] (24 h), the viability at 24 h, 400 µM was 90%. For the same compound, in [9] (48 h), the viability at 48 h, 400 µM stood at 91.6%. This compound had an LC50 at 48 h in data set [4] of 428 µM. The “toxicity on Daphnia magna” value in data set [5] is on record as “moderate toxicity”.
Turning to `CCOC(=O)C(CC)n1nc(-c2ccc(Cl)cc2)ccc1=O` (centres unmarked) [Compound 1c, Ethyl 2-[6-oxo-3-(4-chlorophenyl)pyridazin-1-yl]butanoate], the melting point lay within 49 to 51 °C.
Take `CCC(C(=O)O)n1nc(-c2ccc(Cl)cc2)ccc1=O` (centres unmarked) [Compound 2c, 2-[6-Oxo-3-(4-chlorophenyl)pyridazin-1-yl]butanoic acid]: in [10], the “mitotic film / cell changes in root tips” value was “disorganized metaphase”. Further, the viability at 400 µM in [1] (24 h) amounted to 78.2%; in [1] (48 h), 48.1%; in data set [3] (24 h), 88.3%. Besides, in data set [5], the “toxicity on Daphnia magna” value is given as “no toxicity”. For the same compound, the “L% values (lethality)” value in data set [5] (all tested concentrations) is “ND * (all L% values were lower than 30%)”. For the same compound, the IC50 in data set [6] (24 h, read-out: IC50 LoVo 24 h) is at least 400 µM; in data set [6] (48 h, read-out: IC50 LoVo 48 h), 367 ± 3.7 µM; in [7] (setting [11]) it was at least 400 µM; in data set [7] (setting [12]), at least 400 µM; in data set [8], 553 µM.
